Measurements reported in patent US7122294B2, “Photoacid generators with perfluorinated multifunctional anions” (3M Innovative Properties Company, priority 2003, dated 2006).
“And” between values parts separate entries of the source, which are not always exact repeats. Identical values can stand only once.

What was measured:
[1] = Thermal gravimetric analysis (TGA), onset of thermal decomposition; assay type: physicochemical; details: under nitrogen, ramp 10° C. per minute
Description: TGA was performed on a Perkin-Elmer Instruments TGA Model 7 in an open platinum pan. The onset of thermal decomposition, Td, was taken as the thermal decomposition temperature of the photoacid generators and was determined under nitrogen atmosphere using a temperature ramp of 10° C. per minute. The onset temperature was determined by the intersection of tangents to the low temperature portion of the baseline and the first inflection point in the wt % vs. temperature curve.

[2] = Photo-DSC/DSC cationic curing activity of PAGs in Epon 828; parameters: PDSC Peak Max / PDSC Induction Time: unit not given here; details: for PDSC Energy: Epon 828, 1.0% PAG, 0.1% ITX, light exposure 5 min at 30° C.; for DSC after PDSC Onset Temp / DSC after PDSC Energy / DSC after PDSC Peak Max / PDSC Induction Time / DSC Only (dark) Energy / DSC Only (dark) Onset Temp / DSC Only (dark) Peak Max / PDSC Peak Max: Epon 828; for DSC after PDSC Onset Temp: DSC scan 10° C./minute after light exposure; for DSC after PDSC Energy / DSC after PDSC Peak Max: DSC scan after light exposure; for PDSC Induction Time: light exposure at 30° C.; for DSC Only (dark) Energy / DSC Only (dark) Onset Temp / DSC Only (dark) Peak Max: no prior light exposure; for PDSC Peak Max: time to peak maximum of curing exotherm at 30° C.
Description: (§1) Photo-DSC/DSC: Standard (hermetic) liquid sample pans were used. Sample size was kept in the 6 to 8 mg range. Samples were tested using a Dupont Photo-DSC/DSC instrument (available from DuPont, Wilmington, Del.). The light source was a 200 W Hg lamp that delivered about 60 mw/cm at the sample. Samples were exposed in open pans for 5 minutes to the light source at 30° C. then removed from the instrument, sealed and a standard DSC scan run at 10° C./minute to 300° C. A separate DSC experiment was carried out using a sealed sample pan and no prior light exposure to determine the dark reactivity of these PAGs. Comparison of the DSC traces before and after light exposure enables differentiation between the thermal reactivity of the PAGs (in the dark) and their photochemical activity.
(§2) This example describes photo-DSC/DSC experiments designed to quantitatively compare the relative cationic curing reactivities of PAGs of the present invention containing difunctional fluoroorganic sulfonate anions with related PAGs having identical cations and monofunctional perfluoroalkanesulfonate anions. Relative reactivities were measured in three different cationically polymerizable monomer systems, including two different types of epoxies and one vinyl ether.
(§3) The photo-DSC experiment provides information on the photo-cure speed at 30° C. as measured by the induction time (onset) and time to reach the peak maximum in the curing exotherm. […] The energy released under the curing exotherm is a measure of the extent of cure; larger values mean more cure has taken place during the light exposure. […] Comparison with the DSC traces recorded with no prior light exposure provides a measure of the increase in activity after photoactivation of the PAG.
(§4) General: Stock solutions of three cationically curable monomers were prepared as shown in Table 3 with 0.1% (w/w) isopropylthioxanthone (ITX). Epon 828 is a difunctional glycidyl ether epoxy from Shell, ERL-4221 is a difunctional cycloaliphatic epoxy from Union Carbide and VEX 5015 is a trifunctional vinyl ether from Allied Signal. Because of the low sensitivity of these compositions to room lights, all sample preparation was done with the lab lights on but the hood lights off. All PAGs were formulated at 1.0% by weight in the stock monomer/sensitizer solutions. Into a small aluminum pan was weighed 0.02 g of PAG and 0.04 g of propylene carbonate used to promote dissolution of the PAG in the monomer. The pan was heated briefly on a hot plate set at 100° C. to dissolve the PAG, then 2.0 g the stock monomer/sensitizer solution was added. The solution was briefly heated again on a hot plate set at 100° C. to allow complete mixing of the components, then the solution was allowed to cool to room temperature before using.

[3] = Photo-DSC/DSC cationic curing activity of PAGs in ERL-4221; parameters: PDSC Peak Max / PDSC Induction Time: unit not given here; details: for PDSC Energy: ERL-4221, 1.0% PAG, 0.1% ITX, light exposure 5 min at 30° C.; for DSC after PDSC Onset Temp / DSC after PDSC Energy / DSC after PDSC Peak Max / PDSC Induction Time / DSC Only (dark) Energy / DSC Only (dark) Onset Temp / DSC Only (dark) Peak Max / PDSC Peak Max: ERL-4221; for DSC after PDSC Onset Temp: DSC scan 10° C./minute after light exposure; for DSC after PDSC Energy / DSC after PDSC Peak Max: DSC scan after light exposure; for PDSC Induction Time: light exposure at 30° C.; for DSC Only (dark) Energy / DSC Only (dark) Onset Temp / DSC Only (dark) Peak Max: no prior light exposure; for PDSC Peak Max: time to peak maximum of curing exotherm at 30° C.
Description: as §1, §2, §3, §4

[4] = Photo-DSC/DSC cationic curing activity of PAGs in VEX 5015; parameters: PDSC Peak Max / PDSC Induction Time: unit not given here; details: for PDSC Energy: VEX 5015, 1.0% PAG, 0.1% ITX, light exposure 5 min at 30° C.; for PDSC Induction Time: light exposure at 30° C.; for DSC Only (dark) Onset Temp: no prior light exposure; for PDSC Peak Max: time to peak maximum of curing exotherm at 30° C.
Description: as §1, §2, §3, §4

[5] = VEX 5015, DSC scan after light exposure
[6] = VEX 5015, two values = two exotherms
[7] = VEX 5015, DSC scan after light exposure, two values = two exotherms

| SMILES | onset of thermal decomposition (TGA) [1] | PDSC Energy [2] | DSC after PDSC Onset Temp [2] | DSC after PDSC Energy [2] | DSC after PDSC Peak Max [2] | PDSC Induction Time [2] | DSC Only (dark) Energy [2] | DSC Only (dark) Onset Temp [2] | DSC Only (dark) Peak Max [2] | PDSC Peak Max [2] | PDSC Energy [3] | DSC after PDSC Onset Temp [3] | DSC after PDSC Energy [3] | DSC after PDSC Peak Max [3] | PDSC Induction Time [3] | DSC Only (dark) Energy [3] | DSC Only (dark) Onset Temp [3] | DSC Only (dark) Peak Max [3] | PDSC Peak Max [3] | PDSC Energy [4] | further results |
| --- | --- | --- | --- | --- | --- | --- | --- | --- | --- | --- | --- | --- | --- | --- | --- | --- | --- | --- | --- | --- | --- |
| O=S(=O)([O-])C(F)(F)C(F)(F)N(C(F)(F)F)C(F)(F)C(F)(F)S(=O)(=O)[O-].c1ccc([S+](c2ccccc2)c2ccccc2)cc1.c1ccc([S+](c2ccccc2)c2ccccc2)cc1 [PAG-3, [(C6H5)3S^+]2CF3N(CF2CF2SO3^−)2] | 411 °C |  |  |  |  |  |  |  |  |  |  |  |  |  |  |  |  |  |  |  |  |
| CC(C)(C)c1ccc([I+]c2ccc(C(C)(C)C)cc2)cc1.CC(C)(C)c1ccc([I+]c2ccc(C(C)(C)C)cc2)cc1.O=S(=O)([O-])C(F)(F)C(F)(F)C(F)(F)S(=O)(=O)[O-] [PAG1, [(p-(CH3)3C—C6H4)2I^+]2-O3S(CF2)3SO3—] | 224 °C | 8 J/g | 100 C.° | 553 J/g | 192 °C | 16.2 | 576 J/g | 180 C.° | 230 °C | 27 | 7 J/g | 60 C.° | 582 J/g | 148 °C | 15.1 | 565 J/g | 150 C.° | 203 | 24 | 209 J/g | DSC after PDSC Energy [4, 5]: 54 J/g; PDSC Induction Time ([4]; VEX 5015): 1.6; DSC Only (dark) Onset Temp [4, 6]: 100, C.° and 160 C.°; PDSC Peak Max ([4]; VEX 5015): 4.2 |
| CC(C)(C)c1ccc([I+]c2ccc(C(C)(C)C)cc2)cc1.O=S(=O)([O-])C(F)(F)C(F)(F)C(F)(F)C(F)(F)C(F)(F)C(F)(F)C(F)(F)C(F)(F)F [DTBPI-PFOS, reference compound] |  | 4 J/g | 100 C.° | 566 J/g | 197 °C | 18.9 | 608 J/g | 175 C.° | 238 °C | 28.4 | 4 J/g | 65 C.° | 560 J/g | 155 °C | 14.8 | 583 J/g | 150 C.° | 190 | 22.4 | 230 J/g | DSC after PDSC Energy [4, 5]: 24 J/g; DSC after PDSC Onset Temp [4, 7]: 140 C.°; DSC after PDSC Peak Max [4, 7]: 163 °C; PDSC Induction Time ([4]; VEX 5015): 1.1; DSC Only (dark) Onset Temp [4, 6]: 100, C.° and 160 C.°; PDSC Peak Max ([4]; VEX 5015): 3.2 |
